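Grown in 96-well plates, cells were treated for 48 hours with each compound at five concentrations. Insufficient inhibition: endpoint recorded as highest concentration tested. Here, GI50 denotes the concentration required for 50% inhibition of growth. TGI marks complete inhibition of growth.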
How the values were obtained:
Experiment in all cases: NCI anticancer screen, dose series, 48 h
[1] = test system: SF-295 CNS
[2] = test system: TK-10 renal
[3] = test system: SF-268 CNS
[4] = test system: SK-MEL-5 melanoma
[5] = test system: COLO 205 colon
[6] = test system: OVCAR-5 ovarian
[7] = test system: MDA-MB-435
[8] = test system: PC-3 prostate
[9] = test system: BT-549 breast
[10] = test system: K-562 leukemia
[11] = test system: HCT-116 colon
[12] = test system: HCT-15 colon
[13] = test system: MCF7 breast
[14] = test system: A549 NSCLC
[15] = test system: MALME-3M melanoma
[16] = test system: SN12C renal
[17] = test system: 786-0 renal
[18] = test system: UACC-257 melanoma
[19] = test system: CCRF-CEM leukemia
[20] = test system: NCI/ADR-RES ovarian
[21] = test system: A498 renal
[22] = test system: OVCAR-4 ovarian
[23] = test system: NCI-H23 lung
[24] = test system: SK-MEL-2 melanoma
[25] = test system: U251 CNS
[26] = test system: EKVX NSCLC
[27] = test system: MOLT-4 leukemia
[28] = test system: HCC-2998 colon
[29] = test system: HOP-92 NSCLC
[30] = test system: RXF 393 renal
[31] = test system: SNB-19 CNS
[32] = test system: IGROV1 ovarian
[33] = test system: KM12 colon
[34] = test system: UO-31 renal
[35] = test system: SNB-75 CNS
[36] = test system: T-47D breast
[37] = test system: M14 melanoma
[38] = test system: LOX IMVI melanoma
[39] = test system: DU-145 prostate
[40] = test system: RPMI-8226 leukemia
[41] = test system: SK-MEL-28 melanoma
[42] = test system: NCI-H226 lung
[43] = test system: SK-OV-3 ovarian
[44] = test system: NCI-H522 lung
[45] = test system: CAKI-1 renal
[46] = test system: SF-539 CNS
[47] = test system: HT29 colon
[48] = test system: HL-60(TB) leukemia
[49] = test system: MDA-MB-231 breast
[50] = test system: OVCAR-3 ovarian
[51] = test system: NCI-H460 lung
[52] = test system: UACC-62 melanoma
[53] = test system: HOP-62 NSCLC
[54] = test system: SW-620 colon
[55] = test system: ACHN renal
[56] = test system: SR leukemia
[57] = test system: HS 578T breast
[58] = test system: OVCAR-8 ovarian

COc1cccc(-c2nn(-c3ccccc3)cc2-c2ccnc(NCCNC(=O)Nc3cccc(C(F)(F)F)c3)c2)c1
GI50 [1]: 1.66 µM
TGI [1]: 3.28 µM
GI50 [2]: 2.74 µM
TGI [2]: 11.9 µM
GI50 [3]: 2 µM
TGI [3]: 4.49 µM
GI50 [4]: 1.73 µM
TGI [4]: 3.15 µM
GI50 [5]: 1.88 µM
TGI [5]: 3.78 µM
GI50 [6]: 1.51 µM
TGI [6]: 3.63 µM
GI50 [7]: 1.75 µM
TGI [7]: 3.38 µM
GI50 [8]: 2.02 µM
TGI [8]: 5.24 µM
GI50 [9]: 3.4 µM
TGI [9]: 13.1 µM
GI50 [10]: 2.13 µM
TGI [10]: 4.83 µM
GI50 [11]: 2.88 µM
TGI [11]: 11.8 µM
GI50 [12]: 1.7 µM
TGI [12]: 3.71 µM
GI50 [13]: 2.07 µM
TGI [13]: 4.89 µM
GI50 [14]: 3.38 µM
TGI [14]: 11.5 µM
GI50 [15]: 1.76 µM
TGI [15]: 3.9 µM
GI50 [16]: 1.95 µM
TGI [16]: 4.06 µM
GI50 [17]: 1.93 µM
TGI [17]: 4.39 µM
GI50 [18]: 2.14 µM
TGI [18]: 4.81 µM
GI50 [19]: 2.46 µM
TGI [19]: 7 µM
GI50 [20]: 2.22 µM
TGI [20]: 5.82 µM
GI50 [21]: 2.49 µM
TGI [21]: 8.37 µM
GI50 [22]: 2.36 µM
TGI [22]: 8.13 µM
GI50 [23]: 1.86 µM
TGI [23]: 4.15 µM
GI50 [24]: 1.69 µM
TGI [24]: 3.6 µM
GI50 [25]: 2.28 µM
TGI [25]: 5.26 µM
GI50 [26]: 2 µM
TGI [26]: 6.65 µM
GI50 [27]: 2.02 µM
TGI [27]: 4.81 µM
GI50 [28]: 1.72 µM
TGI [28]: 3.26 µM
GI50 [29]: 1.46 µM
TGI [29]: 3.28 µM
GI50 [30]: 1.53 µM
TGI [30]: 3.03 µM
GI50 [31]: 3.12 µM
TGI [31]: 11.9 µM
GI50 [32]: 2.88 µM
TGI [32]: 9.34 µM
GI50 [33]: 2.08 µM
TGI [33]: 4.54 µM
GI50 [34]: 1.6 µM
TGI [34]: 4.15 µM
GI50 [35]: 1.62 µM
TGI [35]: 12.5 µM
GI50 [36]: 2.23 µM
TGI [36]: 6.01 µM
GI50 [37]: 2.79 µM
TGI [37]: 10.6 µM
GI50 [38]: 1.64 µM
TGI [38]: 2.99 µM
GI50 [39]: 4.16 µM
TGI [39]: 14.9 µM
GI50 [40]: 2.23 µM
TGI [40]: 5.54 µM
GI50 [41]: 1.83 µM
TGI [41]: 3.77 µM
GI50 [42]: 2.07 µM
TGI [42]: 5.32 µM
GI50 [43]: 3.5 µM
TGI [43]: 12.2 µM
GI50 [44]: 1.24 µM
TGI [44]: 3.19 µM
GI50 [45]: 1.95 µM
TGI [45]: 5.62 µM
GI50 [46]: 1.75 µM
TGI [46]: 3.32 µM
GI50 [47]: 1.68 µM
TGI [47]: 3.47 µM
GI50 [48]: 1.54 µM
TGI [48]: 4.23 µM
GI50 [49]: 1.97 µM
TGI [49]: 4.58 µM
GI50 [50]: 1.99 µM
TGI [50]: 4.32 µM
GI50 [51]: 2 µM
TGI [51]: 3.85 µM
GI50 [52]: 1.85 µM
TGI [52]: 3.73 µM
GI50 [53]: 2.52 µM
TGI [53]: 5.63 µM
GI50 [54]: 1.91 µM
TGI [54]: 3.81 µM
GI50 [55]: 2.91 µM
TGI [55]: 10.4 µM
GI50 [56]: 1.91 µM
TGI [56]: 4.97 µM
GI50 [57]: 1.99 µM
TGI [57]: 5.2 µM
GI50 [58]: 3.3 µM
TGI [58]: 9.77 µM

Source: PubChem BioAssay (NCI)
